In patent publication US7338950B2, “Amide compounds as ion channel ligands and uses thereof” (Renovis, Inc., priority 2003, dated 2008):

How the values were obtained:
[1] = target: T1, VR1 receptor (capsaicin induced current in dorsal root ganglion (DRG) neurons) (Rattus norvegicus, UniProt O35433); assay: Whole-cell patch clamp electrophysiology, capsaicin induced current in DRG neurons; type: cell-based
T1 construct: Dorsal root ganglion (DRG) neurons were recovered from either neonatal or adult rats; endogenous in cells; host or cells: primary rat dorsal root ganglion neurons
Protocol: Dorsal root ganglion (DRG) neurons were recovered from either neonatal or adult rats and plated onto poly-D-lysine coated glass coverslips. The plated neurons were transferred into a chamber to allow drug solutions to be added to the cells using a computer-controlled solenoid-valve based perfusion system. The cells were imaged using standard DIC optics. Cells were patched using finely-pulled glass electrodes. Voltage-clamp electrophysiology experiments were carried out using an Axon Instruments Multiclamp amplified controlled by pCLAMP8 software.
The cells were placed into a whole-cell voltage clamp and help at a voltage of −80 mV while monitoring the membrane current in gap-free recording mode. 500 nM capsaicin was added for 30 seconds as a control. Test compounds at various concentrations at ranging from (10-1000 nM) were added to the cells for 1 minute prior to a 30 second capsaicin application. Differences between control experiments and drug positive capsaicin experiments were used to determine the efficacy of each test compound. All compounds that inhibited capsaicin induced current greater than 50% were considered positives.

[2] = Pharmacokinetic profile after intravenous and oral administration; type: in vivo; conditions: male, Sprague-Dawley, rat, plasma, rats
Protocol: The pharmacokinetic profile of Compound 18 was evaluated following intravenous and oral administration in rats. Sprague-Dawley male rats obtained from Charles River, San Diego, Calif. were acclimated for 24 hours.
Compound 18 was formulated at a concentration of 0.5 mg/mL for IV administration at a 1 mg/kg dose and 1 mg/mL for oral administration at a 5 mg/kg dose. All animals were weighed before dosing. The body weight was used to calculate the actual dose for each animal. The intravenous dose was administered through the jugular vein catheter in less than 1 minute. The oral dose volume was 1.5 mL for all PO rats administered through oral lavage.
For IV dosing, blood samples were collected using a pre-heparinized syringe via the carotid artery catheter before dosing and at t=2, 5, 15, 30, 60, 120, 180, 360, and 480 minutes post dosing. For PO dosing, blood samples were collected using a pre-heparinized syringe via the carotid artery catheter before dosing and at t=5, 15, 30, 60, 120, 180, 360, and 480 minutes post dosing. 250 uL of blood was obtained at each time point from each animal. Equal volumes of 0.9% normal saline were replaced to prevent dehydration. The whole blood samples were maintained on ice until centrifugation. Blood samples were centrifuged at 14,000 rpm for 10 minutes at 4° C., and the upper plasma layer was transferred into a clean vial and store at −80° C.

[3] = Plasma protein binding, equilibrium dialysis, human plasma; type: in vitro ADME; conditions: human plasma (sodium citrate), pH 7.4, 37° C., at least 22 hours, read-out: human plasma protein binding (% Bound)
Protocol: Membranes from Harvard/Amika with a molecular weight cutoff of 5,000 were rinsed with dH2O then placed in pH 7.4 PBS supplied by Gibco. The membranes were allowed to soak for 1 hour. A stock of the test article was pooled with Warfarin, Atropine at 2 mM in DMSO. The test article was then dosed into human plasma in sodium citrate, Rat Plasma, and Mouse Plasma to a final 10 μM concentration (0.5% DMSO v/v). The pre-soaked membranes were then placed into dialysis chambers. 500 μL of PBS was added to one side of the chamber, and 500 μL of the Matrix containing the test article was added to the other side of the chamber.
The chambers were then placed into an enclosed, heated rocker, which was pre-warmed to 37° C. and allowed to reach equilibrium for at least 22 hours. After 22 hours both sides were sampled. 100 μL of the donor side was added to 500 μL of PBS. 100 μL of the PBS side was added to 20 μL of fresh matrix. Samples then were crashed with 1:1 Acetonitrile and centrifuged at 10,000 RPM for 10 minutes. […]
Standards were prepared in a 1:5 plasma: PBS mixture at 5, 1.5, 0.5, 0.15, 0.05, 0.015 and 0.005 μM concentrations. […] Protein binding values were calculated as follows: % Bound=[(Concentration in Donor−Concentration in Receiver)/(Concentration in Donor)]×100. % Recovery=[(Concentration in donor+Concentration in Receiver)]/(Concentration in Normal Initial)]×100

CYP2C19 = CYP2C19 (Homo sapiens, UniProt P33261); assay: Cytochrome p450 inhibition assessment, CYP2C19; type: biochemical; conditions: estimated, Hill equation fit
Protocol: (§1) The ability of test compounds to inhibit five major human cytochrome p450 isozymes was evaluated. Cytochrome p450 inhibition assays were performed on 96-well microtiter assay plates according to the protocols described in Gentest P450 inhibition instruction manuals. The assays were performed in duplicate at 8 concentrations with the upper concentration of 100 μM followed by a 1:3 serial dilution. Reactions were initiated by the addition of 100 μL of enzyme/substrate mix to 100 μL of cofactor/serial dilution mix, and terminated by addition of 75 μL of a 4:1 acentonitrile: 0.5 M Tris base solution or by 2N NaOH for CYP3A4/DBF. Fluorescence was measured using a fluorescence plate reader (FLUOstar model 403, BMG Lab Technologies, Durham, N.C.). For reactions with inhibition greater than 50%, IC50 values were determined by fitting the data to the Hill equation using software GraphPad Prism (Version 4.02, GraphPad Software, San Diego, Calif.).

CYP1A2 = target: T2, CYP1A2 (Homo sapiens, UniProt P05177); assay: Cytochrome p450 inhibition assessment, CYP1A2; type: biochemical; conditions: estimated, Hill equation fit
T2 sequence (P05177 1-516): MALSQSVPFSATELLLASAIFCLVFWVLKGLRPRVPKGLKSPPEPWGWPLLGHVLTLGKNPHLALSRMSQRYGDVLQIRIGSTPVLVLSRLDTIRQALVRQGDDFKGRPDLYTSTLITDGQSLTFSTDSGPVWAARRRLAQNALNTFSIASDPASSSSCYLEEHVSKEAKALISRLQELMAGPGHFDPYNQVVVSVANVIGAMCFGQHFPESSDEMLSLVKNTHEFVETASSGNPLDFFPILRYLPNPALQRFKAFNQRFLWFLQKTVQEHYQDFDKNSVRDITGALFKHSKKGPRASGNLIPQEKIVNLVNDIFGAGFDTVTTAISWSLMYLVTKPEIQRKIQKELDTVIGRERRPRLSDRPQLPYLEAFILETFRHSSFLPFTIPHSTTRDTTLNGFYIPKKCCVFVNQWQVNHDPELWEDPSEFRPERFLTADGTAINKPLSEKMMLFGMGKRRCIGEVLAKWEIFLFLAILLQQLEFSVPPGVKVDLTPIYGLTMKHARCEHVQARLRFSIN
Protocol: as §1

[4] = route not stated (IV 1 mg/kg, PO 5 mg/kg)

T1 sequence (O35433 whole entry): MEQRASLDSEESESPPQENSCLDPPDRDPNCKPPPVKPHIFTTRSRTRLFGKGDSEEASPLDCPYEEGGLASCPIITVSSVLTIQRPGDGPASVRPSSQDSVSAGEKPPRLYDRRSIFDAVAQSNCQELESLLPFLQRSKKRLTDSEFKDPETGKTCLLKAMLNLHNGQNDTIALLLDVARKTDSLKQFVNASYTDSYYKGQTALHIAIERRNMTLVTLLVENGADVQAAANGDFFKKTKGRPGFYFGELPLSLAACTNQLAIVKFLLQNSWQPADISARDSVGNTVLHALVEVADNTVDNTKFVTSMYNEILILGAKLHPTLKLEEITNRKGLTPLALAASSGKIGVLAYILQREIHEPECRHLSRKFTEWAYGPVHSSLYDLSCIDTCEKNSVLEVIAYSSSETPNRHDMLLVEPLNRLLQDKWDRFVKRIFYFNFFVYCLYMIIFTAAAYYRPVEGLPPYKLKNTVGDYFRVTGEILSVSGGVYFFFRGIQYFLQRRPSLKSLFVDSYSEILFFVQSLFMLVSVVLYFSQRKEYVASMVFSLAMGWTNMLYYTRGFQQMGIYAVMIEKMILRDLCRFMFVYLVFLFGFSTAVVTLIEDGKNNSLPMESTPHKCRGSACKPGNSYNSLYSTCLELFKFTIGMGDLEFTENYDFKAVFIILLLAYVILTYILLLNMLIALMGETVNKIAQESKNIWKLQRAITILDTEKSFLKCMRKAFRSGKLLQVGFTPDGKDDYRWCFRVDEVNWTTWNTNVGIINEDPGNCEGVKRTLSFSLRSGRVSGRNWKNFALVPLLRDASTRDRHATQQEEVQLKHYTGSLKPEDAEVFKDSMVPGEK
Chain of CYP2C19 (P33261 whole entry): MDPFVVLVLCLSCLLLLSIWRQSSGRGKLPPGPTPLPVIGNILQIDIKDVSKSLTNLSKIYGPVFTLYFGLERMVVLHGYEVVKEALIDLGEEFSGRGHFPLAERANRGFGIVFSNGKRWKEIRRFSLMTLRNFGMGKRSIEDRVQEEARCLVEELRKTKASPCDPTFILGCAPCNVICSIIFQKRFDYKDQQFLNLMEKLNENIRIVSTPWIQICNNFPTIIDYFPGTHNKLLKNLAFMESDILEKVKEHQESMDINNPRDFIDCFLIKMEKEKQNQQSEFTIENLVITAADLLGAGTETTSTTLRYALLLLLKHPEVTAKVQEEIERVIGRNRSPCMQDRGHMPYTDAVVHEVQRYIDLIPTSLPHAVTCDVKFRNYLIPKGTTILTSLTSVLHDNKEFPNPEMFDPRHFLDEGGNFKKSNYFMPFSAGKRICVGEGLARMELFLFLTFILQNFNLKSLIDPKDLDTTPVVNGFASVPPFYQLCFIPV

inhibition at 0.1 µM ([1]; DRG neuron, 100 nM, treatment time 20 seconds, 500 nM capsaicin, rat DRG neurons) [%]	bioavailability ([2]; PO 5 mg/kg vs IV 1 mg/kg, read-out: Oral Bioavailability (% F)) [%]	Cmax [2, 4] [nM]	Tmax [2, 4] [h]	clearance ([2]; route not stated (IV 1 mg/kg, PO 5 mg/kg), read-out: Clearance (Cl) (converted)) [mL/min/kg]	Vd ([2]; route not stated (IV 1 mg/kg, PO 5 mg/kg), read-out: Volume of distribution (Vd)) [L/kg]	half-life ([2]; route not stated (IV 1 mg/kg, PO 5 mg/kg), read-out: half life (t½) (converted)) [h]	fraction unbound at 22 h, 10 µM [3]	IC50 (CYP2C19) [µM]	IC50 (CYP1A2) [µM]	dose response of inhibiting a capsaicin induced calcium ion influx (FIG. 4) ([1]; 20 nM, 40 nM, 100 nM and 200 nM)	inhibition at 0.2 µM ([1]; DRG neuron, 200 nM, treatment time 25 seconds, 500 nM capsaicin, rat DRG neurons) [%]	SMILES
< 75	30.1	1750	3	8.83	2.82	3.71	< 0.002	26.9	97.5	–	–	COc1ccc(CCNC(=O)c2ccc(-c3ncccc3Cl)cc2)cc1OC [Compound 18]
–	–	–	–	–	–	–	–	–	–	increasing effectiveness	100	O=C(NCc1ccc(Cl)c(Cl)c1)c1ccc(-c2ncccc2Cl)cc1 [Compound 24]
